Data from US20250382303A1, “NOVEL COMPOUND AS NADPH OXIDASE 2 INHIBITOR AND PHARMACEUTICAL COMPOSITION CONTAINING SAME” (DONGGUK UNIVERSITY INDUSTRY-ACADEMIC COOPERATION FOUNDATION, priority 2022, published 2025).

Target: T1, NOX2 (Homo sapiens, UniProt P04839)
T1 construct: Used for the NOX2 activity assay was human leukemia 60 cells (HL-60), which are widely, universally used to assess NOX2 activity; endogenous in cells
T1 sequence (P04839 2-570 limits assumed): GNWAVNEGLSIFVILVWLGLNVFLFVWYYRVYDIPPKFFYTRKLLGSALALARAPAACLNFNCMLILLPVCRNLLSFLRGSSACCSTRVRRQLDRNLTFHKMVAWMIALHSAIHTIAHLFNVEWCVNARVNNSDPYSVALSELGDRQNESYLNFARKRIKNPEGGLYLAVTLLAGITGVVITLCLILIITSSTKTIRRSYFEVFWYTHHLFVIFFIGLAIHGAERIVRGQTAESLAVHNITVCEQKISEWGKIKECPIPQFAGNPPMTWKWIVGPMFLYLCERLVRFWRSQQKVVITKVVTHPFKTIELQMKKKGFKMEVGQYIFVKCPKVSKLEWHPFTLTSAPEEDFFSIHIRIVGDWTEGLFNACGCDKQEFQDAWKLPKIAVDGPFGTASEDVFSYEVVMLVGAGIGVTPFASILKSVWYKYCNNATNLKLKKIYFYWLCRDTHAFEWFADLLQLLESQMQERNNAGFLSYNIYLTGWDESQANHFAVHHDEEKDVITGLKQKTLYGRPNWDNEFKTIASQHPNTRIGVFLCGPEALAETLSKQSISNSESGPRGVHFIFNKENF
T1 sequence (P13498 2-195 partner limits assumed): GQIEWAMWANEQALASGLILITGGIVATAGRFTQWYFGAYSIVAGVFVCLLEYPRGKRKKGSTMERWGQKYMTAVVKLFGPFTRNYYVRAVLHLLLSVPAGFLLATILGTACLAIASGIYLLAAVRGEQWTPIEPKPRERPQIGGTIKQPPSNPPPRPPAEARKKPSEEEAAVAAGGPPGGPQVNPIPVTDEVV
Test: NOX2 activity assay: PMA-induced ROS in ATRA-differentiated HL-60 cells (WST-1 or Amplex Red/HRP probe)
Type: cell-based
Settings: for NOX2 inhibitory ability, verbal rating: WST-1, comment on Table 1; for IC50: WST-1 probe, differentiated HL-60, 200 ng/mL PMA, read-out: Inhibitory ability (NOX2)
Procedure: NOX activity was evaluated by measuring the reactive oxygen species (ROS) produced by NOX. The probes that were used to measure ROS were water soluble tetrazolium-1 (WST-1, superoxide-specific colorimetric probe) and Amplex Red/horseradish peroxidase (AR/HRP, hydrogen peroxide-specific fluorometric probe), and the concentration of the probes used was […]. For WST-1, the change in the absorbance at 450 nm was measured, and, for AR, the change in fluorescence signals was measured at 560 nm and 585 nm, respectively for excitation wavelength (Ex) and emission wavelength (Em). The optical signal was measured using the SpectraMax M3 microplate reader from Molecular Devices at 37° C. for 60 minutes.
Used for the NOX2 activity assay was human leukemia 60 cells (HL-60), which are widely, universally used to assess NOX2 activity. 1×10^5 cells/mL of HL-60 were treated with […] all-trans-retinoic acid (ATRA) for 4 days to induce differentiation. Differentiated HL-60 (diff. HL-60) was centrifuged at 200 g for 5 minutes and washed twice with HBSS. Differentiation was induced to reach 3×10^4 cells/well on a 96-well plate (diff). HL-60 was seeded. The test material was treated to cells and left in a 37° C. incubator for 60 minutes. As a control group, the same concentration of DMSO, which is the vehicle of the test material, was used. 200 ng/mL phorbol 12-myristate 13-acetate (PMA) was used as the NOX2 activator, and the production amount of ROS induced by PMA was measured for 60 minutes. […] diphenyleneiodonium (DPI), which is well known to inhibit NOX, was used as a positive control group to evaluate whether the NOX2 activity tester properly operates.

SMILES	NOX2 inhibitory ability, verbal rating	IC50 [µM]
CC12CC(NC(=O)N1c1cccc(C(=O)N3CCc4ccccc4C3)c1)c1cc(-c3cccs3)ccc1O2 (stereo not shown) [Compound 26c, 2-Methyl-3-(3-(1,2,3,4-tetrahydroisoquinoline-2-carbonyl)phenyl)-8-(thiophen-2-yl)-5,6-dihydro-2H-2,6-methanobenzo[g][1,3,5]oxadiazocin-4(3H)-one]	excellent inhibitory ability	> 10
CC12CC(NC(=O)N1c1cccc(C(=O)N3CCc4ccccc4C3)c1)c1cc(-c3ccco3)ccc1O2 (stereo not shown) [Compound 26d, 8-(furan-2-yl)-2-methyl-3-(3-(1,2,3,4-tetrahydroisoquinoline-2-carbonyl)phenyl)-5,6-dihydro-2H-2,6-methanobenzo[g][1,3,5]oxadiazocin-4(3H)-one]	excellent inhibitory ability	> 10
COc1ccc(-c2ccc3c(c2)C2CC(C)(O3)N(c3cccc(C(=O)N4CCc5ccccc5C4)c3)C(=O)N2)cc1 (stereo not shown) [Compound 26e, 8-(4-Methoxyphenyl)-2-methyl-3-(3-(1,2,3,4-tetrahydroisoquinoline-2-carbonyl)phenyl)-5,6-dihydro-2H-2,6-methanobenzo[g][1,3,5]oxadiazocin-4(3H)-one]	excellent inhibitory ability	> 10
CC12CC(NC(=O)N1c1cccc(C(=O)N3CCc4ccccc4C3)c1)c1cc(N3CCOCC3)ccc1O2 (stereo not shown) [Compound 26f, 2-Methyl-8-morpholino-3-(3-(1,2,3,4-tetrahydroisoquinoline-2-carbonyl)phenyl)-5,6-dihydro-2H-2,6-methanobenzo[g][1,3,5]oxadiazocin-4(3H)-one]		1 to 10
CC12CC(NC(=O)N1c1cccc(C(=O)N3CCc4ccccc4C3)c1)c1cccc(-c3ccsc3)c1O2 (stereo not shown) [Compound 26g, 2-Methyl-3-(3-(1,2,3,4-tetrahydroisoquinoline-2-carbonyl)phenyl)-10-(thiophen-3-yl)-5,6-dihydro-2H-2,6-methanobenzo[g][1,3,5]oxadiazocin-4(3H)-one]		1 to 10
CC12CC(NC(=O)N1c1cccc(C(=O)N3CCc4ccccc4C3)c1)c1cccc(-c3ccoc3)c1O2 (stereo not shown) [Compound 26h, 10-(Furan-3-yl)-2-methyl-3-(3-(1,2,3,4-tetrahydroisoquinoline-2-carbonyl)phenyl)-5,6-dihydro-2H-2,6-methanobenzo[g][1,3,5]oxadiazocin-4(3H)-one]		1 to 10
CC12CC(NC(=O)N1c1cccc(C(=O)N3CCc4ccccc4C3)c1)c1ccc(-c3ccsc3)cc1O2 (stereo not shown) [Compound 26i, 2-Methyl-3-(3-(1,2,3,4-tetrahydroisoquinoline-2-carbonyl)phenyl)-9-(thiophen-3-yl)-5,6-dihydro-2H-2,6-methanobenzo[g][1,3,5]oxadiazocin-4(3H)-one]		1 to 10
CC12CC(NC(=O)N1c1cccc(C(=O)N3CCc4ccccc4C3)c1)c1ccc(-c3ccoc3)cc1O2 (stereo not shown) [Compound 26j, 9-(Furan-3-yl)-2-methyl-3-(3-(1,2,3,4-tetrahydroisoquinoline-2-carbonyl)phenyl)-5,6-dihydro-2H-2,6-methanobenzo[g][1,3,5]oxadiazocin-4(3H)-one]		1 to 10
CC12CC(NC(=O)N1c1cccc(C(=O)N3CCc4ccc(F)cc4C3)c1)c1cc(Br)ccc1O2 (stereo not shown) [Compound 27a, 8-Bromo-3-(3-(7-fluoro-1,2,3,4-tetrahydroisoquinoline-2-carbonyl)phenyl)-2-methyl-5,6-dihydro-2H-2,6-methanobenzo[g][1,3,5]oxadiazocin-4(3H)-one]		1 to 10
CC12CC(NC(=O)N1c1cccc(C(=O)N3CCc4cc(F)ccc4C3)c1)c1cc(Br)ccc1O2 (stereo not shown) [Compound 27b, 8-Bromo-3-(3-(6-fluoro-1,2,3,4-tetrahydroisoquinoline-2-carbonyl)phenyl)-2-methyl-5,6-dihydro-2H-2,6-methanobenzo[g][1,3,5]oxadiazocin-4(3H)-one]		1 to 10
CC12CC(NC(=O)N1c1cccc(C(=O)N3CCc4cccc(F)c4C3)c1)c1cc(Br)ccc1O2 (stereo not shown) [Compound 27c, 8-Bromo-3-(3-(8-fluoro-1,2,3,4-tetrahydroisoquinoline-2-carbonyl)phenyl)-2-methyl-5,6-dihydro-2H-2,6-methanobenzo[g][1,3,5]oxadiazocin-4(3H)-one]		> 10
CC12CC(NC(=O)N1c1cccc(C(=O)N3CCc4c(cccc4C(F)(F)F)C3)c1)c1cc(Br)ccc1O2 (stereo not shown) [Compound 27e, 8-Bromo-2-methyl-3-(3-(5-(trifluoromethyl)-1,2,3,4-tetrahydroisoquinoline-2-carbonyl)phenyl)-5,6-dihydro-2H-2,6-methanobenzo[g][1,3,5]oxadiazocin-4(3H)-one]		1 to 10
CC12CC(NC(=O)N1c1cccc(C(=O)N3CCc4cc(C(F)(F)F)ccc4C3)c1)c1cc(Br)ccc1O2 (stereo not shown) [Compound 27h, 8-Bromo-2-methyl-3-(3-(6-(trifluoromethyl)-1,2,3,4-tetrahydroisoquinoline-2-carbonyl)phenyl)-5,6-dihydro-2H-2,6-methanobenzo[g][1,3,5]oxadiazocin-4(3H)-one]		1 to 10

More lines, now with the values ahead:

NOX2 inhibitory ability, verbal rating	IC50 [µM]	SMILES
	1 to 10	CC12CC(NC(=O)N1c1cccc(C(=O)N3CCc4ccc(F)cc4C3)c1)c1cc(-c3ccoc3)ccc1O2 (stereo not shown) [Compound 28a, 3-(3-(7-Fluoro-1,2,3,4-tetrahydroisoquinoline-2-carbonyl)phenyl)-8-(furan-3-yl)-2-methyl-5,6-dihydro-2H-2,6-methanobenzo[g][1,3,5]oxadiazocin-4(3H)-one]
excellent inhibitory ability	1 to 10	CC12CC(NC(=O)N1c1cccc(C(=O)N3CCc4cc(F)ccc4C3)c1)c1cc(-c3ccoc3)ccc1O2 (stereo not shown) [Compound 28b, 3-(3-(6-Fluoro-1,2,3,4-tetrahydroisoquinoline-2-carbonyl)phenyl)-8-(furan-3-yl)-2-methyl-5,6-dihydro-2H-2,6-methanobenzo[g][1,3,5]oxadiazocin-4(3H)-one]
excellent inhibitory ability	> 10	CC12CC(NC(=O)N1c1cccc(C(=O)N3CCc4cccc(F)c4C3)c1)c1cc(-c3ccoc3)ccc1O2 (stereo not shown) [Compound 28c, 3-(3-(8-Fluoro-1,2,3,4-tetrahydroisoquinoline-2-carbonyl)phenyl)-8-(furan-3-yl)-2-methyl-5,6-dihydro-2H-2,6-methanobenzo[g][1,3,5]oxadiazocin-4(3H)-one]
excellent inhibitory ability	> 10	CC12CC(NC(=O)N1c1cccc(C(=O)N3CCc4c(F)cccc4C3)c1)c1cc(-c3ccoc3)ccc1O2 (stereo not shown) [Compound 28d, 3-(3-(5-Fluoro-1,2,3,4-tetrahydroisoquinoline-2-carbonyl)phenyl)-8-(furan-3-yl)-2-methyl-5,6-dihydro-2H-2,6-methanobenzo[g][1,3,5]oxadiazocin-4(3H)-one]
	1 to 10	CC12CC(NC(=O)N1c1cccc(C(=O)N3CCc4c(cccc4C(F)(F)F)C3)c1)c1cc(-c3ccoc3)ccc1O2 (stereo not shown) [Compound 28e, 8-(Furan-3-yl)-2-methyl-3-(3-(5-(trifluoromethyl)-1,2,3,4-tetrahydroisoquinoline-2-carbonyl)phenyl)-5,6-dihydro-2H-2,6-methanobenzo[g][1,3,5]oxadiazocin-4(3H)-one]
	> 10	CC12CC(NC(=O)N1c1cccc(C(=O)N3CCc4ccc(C(F)(F)F)cc4C3)c1)c1cc(-c3ccoc3)ccc1O2 (stereo not shown) [Compound 28f, 8-(Furan-3-yl)-2-methyl-3-(3-(7-(trifluoromethyl)-1,2,3,4-tetrahydroisoquinoline-2-carbonyl)phenyl)-5,6-dihydro-2H-2,6-methanobenzo[g][1,3,5]oxadiazocin-4(3H)-one]
